Where “and” joins values, the source holds several entries; their conditions need not be identical. Equal values may be shown once. Inconclusive results and toxic doses are left out. Cut-off read from the data, not from the text of the source: active = T/C of 150% or more; inactive = T/C below 125%.
Tested on: L1210 leukemia ip in BDF1 mice, survival T/C
Experiment: NCI In Vivo Anticancer Drug Screen. Data for tumor model L1210 Leukemia (intraperitoneal) in B6D2F1 (BDF1) mice
Settings: endpoint: mean survival time, higher = longer survival
Outline: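 Each compound was tested against a transplantable tumor grown in mice. The endpoint was survival, with treated animals benchmarked against vehicle controls as a simple ratio.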

[1] = dose: 100.0 mg/kg/injection, schedule: Q01DX005 (ip), vehicle: saline
[2] = dose: 200.0 mg/kg/injection, schedule: Q01DX009 (ip), vehicle: gum acacia
[3] = dose: 400.0 mg/kg/injection, schedule: Q01DX009 (ip), vehicle: gum acacia
[4] = dose: 100.0 mg/kg/injection, schedule: Q01DX009 (ip), vehicle: Klucel (hydroxypropylcellulose) (HPC)
[5] = dose: 100.0 mg/kg/injection, schedule: Q04DX003 (ip), vehicle: Klucel (hydroxypropylcellulose) (HPC)
[6] = dose: 200.0 mg/kg/injection, schedule: Q04DX003 (ip), vehicle: Klucel (hydroxypropylcellulose) (HPC)
[7] = dose: 400.0 mg/kg/injection, schedule: Q04DX003 (ip), vehicle: Klucel (hydroxypropylcellulose) (HPC)
[8] = dose: 100.0 mg/kg/injection, schedule: Q04DX003 (ip), vehicle: saline with Tween-80
[9] = dose: 100.0 mg/kg/injection, schedule: Q01DX001 (ip), vehicle: saline

Measured: T/C

NS(=O)(=O)c1c([N+](=O)[O-])ncn1C1OC(COC(=O)c2ccccc2)C(OC(=O)c2ccccc2)C1OC(=O)c1ccccc1 (stereo unspecified)
inactive: [1] 93 % of control | dose: 200.0 mg/kg/injection, schedule: Q01DX005 (ip), vehicle: saline 95 % of control

C(=NC(c1ccccc1)(c1ccccc1)c1ccccc1)=NC(c1ccccc1)(c1ccccc1)c1ccccc1
inactive: dose: 25.0 mg/kg/injection, schedule: Q01DX009 (ip), vehicle: gum acacia 88 % of control | dose: 50.0 mg/kg/injection, schedule: Q01DX009 (ip), vehicle: gum acacia 90 % of control | dose: 100.0 mg/kg/injection, schedule: Q04DX003 (ip), vehicle: gum acacia 93 % of control | [2] 88 % of control | dose: 200.0 mg/kg/injection, schedule: Q04DX003 (ip), vehicle: gum acacia 91 % of control | [3] 88 % of control | dose: 400.0 mg/kg/injection, schedule: Q04DX003 (ip), vehicle: gum acacia 86 % of control

NN1CCCC1
inactive: dose: 50.0 mg/kg/injection, schedule: Q01DX009 (ip), vehicle: saline 98 % of control | dose: 100.0 mg/kg/injection, schedule: Q01DX009 (ip), vehicle: saline 96 % of control | dose: 100.0 mg/kg/injection, schedule: Q04DX003 (ip), vehicle: saline 99 % of control | dose: 200.0 mg/kg/injection, schedule: Q04DX003 (ip), vehicle: saline 96 % of control

O=C(O)C1=CCCc2ccc3ccccc3c21
inactive: dose: 75.0 mg/kg/injection, schedule: Q04DX003 (ip), vehicle: saline 100 % of control | [4] 96 % of control | dose: 150.0 mg/kg/injection, schedule: Q04DX003 (ip), vehicle: saline 100 % of control | dose: 200.0 mg/kg/injection, schedule: Q01DX009 (ip), vehicle: Klucel (hydroxypropylcellulose) (HPC) 102 % of control | dose: 300.0 mg/kg/injection, schedule: Q04DX003 (ip), vehicle: saline 97 % of control

NC(CSCCc1ccc2ccccc2n1)C(=O)O (stereo unspecified)
inactive: [5] 100 % of control | [6] 95 % of control | [7] 99 % of control

Cc1ccc(SCC#CCOc2ccc(Cl)cc2)cc1
inactive: dose: 75.0 mg/kg/injection, schedule: Q01DX001 (ip), vehicle: saline 93 % of control | dose: 75.0 mg/kg/injection, schedule: Q01DX009 (ip), vehicle: saline 99 % of control | dose: 150.0 mg/kg/injection, schedule: Q01DX001 (ip), vehicle: saline 95 % of control | dose: 150.0 mg/kg/injection, schedule: Q01DX009 (ip), vehicle: saline 99 % of control | dose: 300.0 mg/kg/injection, schedule: Q01DX001 (ip), vehicle: saline 93 % of control | dose: 300.0 mg/kg/injection, schedule: Q01DX009 (ip), vehicle: saline 96 % of control

COC1=C(N2CC2)C(=O)c2ccccc2C1=O
inactive: dose: 25.0 mg/kg/injection, schedule: Q04DX003 (ip), vehicle: saline with Tween-80 109 % of control | dose: 50.0 mg/kg/injection, schedule: Q04DX003 (ip), vehicle: saline with Tween-80 101 % of control | [8] 101 % of control and 108 % of control

O=S1c2ccccc2Sc2ccccc21
inactive: [8] 103 % of control | dose: 200.0 mg/kg/injection, schedule: Q04DX003 (ip), vehicle: saline with Tween-80 97 % of control | dose: 400.0 mg/kg/injection, schedule: Q04DX003 (ip), vehicle: saline with Tween-80 100 % of control

O=C(/C(=C1\SS/C(=C(/C(=O)c2ccccc2)c2ccccc2)S1)c1ccccc1)c1ccccc1
inactive: dose: 100.0 mg/kg/injection, schedule: Q01DX001 (ip), vehicle: Klucel (hydroxypropylcellulose) (HPC) 114 % of control | [5] 100 % of control | dose: 200.0 mg/kg/injection, schedule: Q01DX001 (ip), vehicle: Klucel (hydroxypropylcellulose) (HPC) 108 % of control | [6] 97 % of control | dose: 400.0 mg/kg/injection, schedule: Q01DX001 (ip), vehicle: Klucel (hydroxypropylcellulose) (HPC) 104 % of control | [7] 94 % of control

O=C(O)C1CCC(C(=O)O)c2ccccc21 (stereo unspecified)
inactive: dose: 12.5 mg/kg/injection, schedule: Q04DX003 (ip), vehicle: Klucel (hydroxypropylcellulose) (HPC) 91 % of control | dose: 25.0 mg/kg/injection, schedule: Q04DX003 (ip), vehicle: Klucel (hydroxypropylcellulose) (HPC) 96 % of control | dose: 50.0 mg/kg/injection, schedule: Q04DX003 (ip), vehicle: Klucel (hydroxypropylcellulose) (HPC) 102 % of control | [5] 93 % of control and 91 % of control | [6] 95 % of control | [7] 88 % of control and 91 % of control

COC(=O)c1ccc(C)cn1
inactive: [9] 100 % of control

CC(=O)Nc1ccn(C2OC(COC(C)=O)C(OC3OC4COC(c5ccccc5)OC4C(OC(C)=O)C3OC(C)=O)C(OC(C)=O)C2OC(C)=O)c(=O)n1 (stereo unspecified)
inactive: dose: 22.5 mg/kg/injection, schedule: Q01DX001 (ip), vehicle: carboxymethylcellulose (CMC) 97 % of control | dose: 45.0 mg/kg/injection, schedule: Q01DX001 (ip), vehicle: carboxymethylcellulose (CMC) 103 % of control | dose: 90.0 mg/kg/injection, schedule: Q01DX001 (ip), vehicle: carboxymethylcellulose (CMC) 92 % of control | dose: 180.0 mg/kg/injection, schedule: Q01DX001 (ip), vehicle: carboxymethylcellulose (CMC) 97 % of control

O=[N+]([O-])c1cccc(C(O)C=C(C(F)(F)F)C(F)(F)F)c1 (stereo unspecified)
inactive: dose: 25.0 mg/kg/injection, schedule: Q01DX009 (ip), vehicle: saline with Tween-80 100 % of control | dose: 50.0 mg/kg/injection, schedule: Q01DX009 (ip), vehicle: saline with Tween-80 98 % of control | dose: 100.0 mg/kg/injection, schedule: Q01DX009 (ip), vehicle: saline with Tween-80 98 % of control | [8] 103 % of control

Nc1nc(=O)n(C2OC(CO)C(O)C2O)c2scnc12 (stereo unspecified)
inactive: dose: 50.0 mg/kg/injection, schedule: Q01DX005 (ip), vehicle: saline 107 % of control | [1] 107 % of control

SC1c2cc(Cl)ccc2-c2c(Cl)cc(Cl)cc21 (stereo unspecified)
inactive: dose: 100.0 mg/kg/injection, schedule: Q01DX001 (ip), vehicle: carboxymethylcellulose (CMC) 93 % of control | dose: 200.0 mg/kg/injection, schedule: Q01DX001 (ip), vehicle: carboxymethylcellulose (CMC) 98 % of control | dose: 400.0 mg/kg/injection, schedule: Q01DX001 (ip), vehicle: carboxymethylcellulose (CMC) 117 % of control

C=CCN(CC=C)c1nn[nH]n1
inactive: [5] 92 % of control | [6] 88 % of control | [7] 88 % of control

COC1OCC(NC(C)=O)C(O)C1O (stereo unspecified)
inactive: dose: 50.0 mg/kg/injection, schedule: Q01DX001 (ip), vehicle: saline 102 % of control | [9] 102 % of control | dose: 200.0 mg/kg/injection, schedule: Q01DX001 (ip), vehicle: saline 100 % of control | dose: 400.0 mg/kg/injection, schedule: Q01DX001 (ip), vehicle: saline 107 % of control

CCCCCCCCCCCC(=O)Nc1ccc(S(=O)(=O)NNc2ccccc2)cc1[N+](=O)[O-]
inactive: [4] 95 % of control | dose: 100.0 mg/kg/injection, schedule: Q04DX003 (ip), vehicle: alcohol 94 % of control | dose: 200.0 mg/kg/injection, schedule: Q04DX003 (ip), vehicle: alcohol 95 % of control | dose: 400.0 mg/kg/injection, schedule: Q04DX003 (ip), vehicle: alcohol 90 % of control

CCCCNC(=O)Nc1cc(C)ccc1Cl
inactive: dose: 100.0 mg/kg/injection, schedule: Q04DX002 (ip), vehicle: Klucel (hydroxypropylcellulose) (HPC) 115 % of control | dose: 200.0 mg/kg/injection, schedule: Q04DX002 (ip), vehicle: Klucel (hydroxypropylcellulose) (HPC) 97 % of control | dose: 400.0 mg/kg/injection, schedule: Q04DX002 (ip), vehicle: Klucel (hydroxypropylcellulose) (HPC) 105 % of control

COc1ccc(Cl)cc1NC(=O)OCCCc1ccccc1
inactive: dose: 100.0 mg/kg/injection, schedule: Q01DX009 (ip), vehicle: gum acacia 108 % of control | [2] 98 % of control | [3] 109 % of control

— PubChem BioAssay AID248 (DTP/NCI, 2004)
